Test results taken from the NIST ThermoML archive (doi:10.1016/j.fluid.2008.02.005).

How the values were obtained:
[1] = 101.33 kPa, Liquid
[2] = xn = mol fraction of the nth substance listed; settings: 101 kPa, Liquid

CCCCCO [pentan-1-ol]
[1]
Settings | mass density [kg/m3]
288.15 K | 818.336
298.15 K | 811.001
308.15 K | 803.302

CCCO [propan-1-ol]
[1]
Settings | mass density [kg/m3]
288.15 K | 807.898
298.15 K | 799.666
308.15 K | 791.765

CCCCCCOCCOCCO [2-(2-hexyloxyethoxy)ethanol] + CCCCCO
mass density [kg/m3], [2]
Settings | 288.15 K | 298.15 K | 308.15 K
x1 = 0.1112 | 837.545 | 830.059 | 822.319
x1 = 0.1587 | 846.35 | 838.122 | 830.389
x1 = 0.2096 | 855.128 | 846.145 | 838.566
x1 = 0.2584 | 862.625 | 853.171 | 845.659
x1 = 0.3012 | 868.44 | 858.72 | 851.35
x1 = 0.3558 | 874.88 | 865.166 | 857.77
x1 = 0.4022 | 879.672 | 870.098 | 862.642
x1 = 0.4506 | 884.17 | 874.849 | 867.245
x1 = 0.5069 | 889.049 | 880.057 | 872.125
x1 = 0.541 | 891.897 | 883.079 | 874.951
x1 = 0.5971 | 896.445 | 887.853 | 879.382
x1 = 0.6456 | 900.337 | 891.848 | 883.098
x1 = 0.6998 | 904.59 | 896.131 | 887.198
x1 = 0.747 | 908.177 | 899.702 | 890.721
x1 = 0.8052 | 912.354 | 903.888 | 894.96
x1 = 0.8501 | 915.348 | 906.892 | 898.056
x1 = 0.9008 | 918.511 | 910.007 | 901.375
x1 = 0.9459 | 921.161 | 912.609 | 903.991

CCCCCCCO [heptan-1-ol]
[1]
Settings | mass density [kg/m3]
288.15 K | 825.943
298.15 K | 818.789
308.15 K | 812.385

CCCCCCOCCOCCO [2-(2-hexyloxyethoxy)ethanol] + CCCCCCCO
mass density [kg/m3], [2]
Settings | 288.15 K | 298.15 K | 308.15 K
x1 = 0.1109 | 840.489 | 833.182 | 825.922
x1 = 0.1592 | 846.447 | 839.091 | 831.645
x1 = 0.1986 | 851.154 | 843.756 | 836.178
x1 = 0.258 | 857.994 | 850.491 | 842.797
x1 = 0.3094 | 863.644 | 856.08 | 848.254
x1 = 0.3515 | 868.149 | 860.468 | 852.588
x1 = 0.3927 | 872.418 | 864.636 | 856.716
x1 = 0.4463 | 877.834 | 869.912 | 861.89
x1 = 0.5084 | 883.872 | 875.796 | 867.692
x1 = 0.5574 | 888.492 | 880.349 | 872.159
x1 = 0.6167 | 893.921 | 885.645 | 877.389
x1 = 0.6511 | 896.97 | 888.674 | 880.331
x1 = 0.7101 | 902.042 | 893.703 | 885.279
x1 = 0.7491 | 905.269 | 896.923 | 888.446
x1 = 0.8085 | 910.029 | 901.658 | 893.122
x1 = 0.8543 | 913.588 | 905.198 | 896.613
x1 = 0.9087 | 917.663 | 909.197 | 900.531
x1 = 0.9487 | 920.583 | 912.028 | 903.307
